{"source": "patent US12221417B2", "about": "“Salt of omecamtiv mecarbil and process for preparing salt” (Cytokinetics, Inc., priority 2013, dated 2025)", "key": {"[1]": {"assay": "Dynamic vapor sorption (moisture balance)", "assay_type": "physicochemical", "method": "Moisture balance data was collected using a VTI SGA 100 symmetrical vapor sorption analyzer. Relative humidity was varied in increments of 5%, between 5% and 95% relative humidity during the adsorption run, and from 95% to 5% relative humidity during the desorption run. Equilibrium criteria was set at 0.01% weight change in 1 minute with a max equilibrium time of 180 minutes. Approximately 1-15 mg of sample was used."}, "[2]": {"conditions": "pH 3.5"}, "physchem": {"assay": "physchem", "conditions": "pH 3.5, water, thermodynamic from solid"}, "[3]": {"assay": "Water solubility (24 hour slurry experiment)", "conditions": "pH 3.8, water, thermodynamic from solid"}}, "note": "Structures can show the parent of a compound that is named as a salt.", "data": [{"smiles": "COC(=O)N1CCN(Cc2cccc(NC(=O)Nc3ccc(C)nc3)c2F)CC1", "note": "[Form A, omecamtiv mecarbil dihydrochloride hydrate]", "values": [{"measurement": "weight change, dynamic vapor sorption", "setting": "[1]; above 15% relative humidity, upon reaching 95% relative humidity", "result": "~1.0", "unit": "%"}, {"measurement": "weight loss, dynamic vapor sorption", "setting": "[1]; between about 30% and about 5% RH", "result": "about 2.7 wt %"}, {"measurement": "total weight gain, dynamic vapor sorption", "setting": "[1]; between about 40% and about 95% relative humidity", "result": "about 0.55 wt. %"}, {"measurement": "hygroscopicity", "setting": "[1]; dynamic vapor sorption", "result": "non-hygroscopic"}, {"measurement": "phase change after the vapor sorption experiment", "setting": "[1]; examined by XRPD", "result": "No phase change"}, {"measurement": "phase change during the slurry experiment", "setting": "[2]", "result": "no phase change"}, {"measurement": "solubility at 24 h", "setting": "physchem", "result": "> 40", "unit": "mg/mL"}]}, {"smiles": "COC(=O)N1CCN(Cc2cccc(NC(=O)Nc3ccc(C)nc3)c2F)CC1", "note": "[dihydrochloride salt, omecamtiv mecarbil dihydrochloride hydrate]", "values": [{"measurement": "solubility", "setting": "[3]", "result": "> 40", "unit": "mg/mL"}]}]}
